From patent US5679684A, “Hydroxyalkylammonium-pyrimidines and nucleoside derivatives, useful as inhibitors of inflammatory cytokines” (Macronex, Inc., priority 1995, dated 1997)
pEC50: −log10 of the molar value.

What was measured:
Tissue Factor = test: Monocyte procoagulant activity (Tissue Factor); assay type: cell-based, human; design: key to EFFECT: NE: No effect; NT: Not tested; INHIB: Inhibition; STIM: Stimulation; IC20: 20% Inhibitory Concentration; EC50: 50% Effective Concentration; TC: Tolerated Concentration
Method: Monocyte Procoagulant Activity (Tissue Factor):
The adhered monocytes remaining on the 48-well tissue culture plates after removal of the supernatants above, are used to measure levels of Tissue Factor production. The cells are solubilized overnight at 4° C. in 10% Triton-X100 in PBS, diluted to 1% Triton-X100 with PBS then assayed by ELISA for Tissue Factor.

IL-8 = test: Monocyte release of IL-8; assay type: cell-based, human; design: key to EFFECT: NE: No effect; NT: Not tested; INHIB: Inhibition; STIM: Stimulation; IC20: 20% Inhibitory Concentration; EC50: 50% Effective Concentration; TC: Tolerated Concentration; conditions: IL8
TNF-α [1] = test: Monocyte release of TNF-α; assay type: cell-based, human; design: key to EFFECT: NE: No effect; NT: Not tested; INHIB: Inhibition; STIM: Stimulation; IC20: 20% Inhibitory Concentration; EC50: 50% Effective Concentration; TC: Tolerated Concentration; conditions: TNFα
MTS = assay type: cell-based; design: key to EFFECT: NE: No effect; NT: Not tested; INHIB: Inhibition; STIM: Stimulation; IC20: 20% Inhibitory Concentration; EC50: 50% Effective Concentration; TC: Tolerated Concentration
LDH = assay type: cell-based; design: key to EFFECT: NE: No effect; NT: Not tested; INHIB: Inhibition; STIM: Stimulation; IC20: 20% Inhibitory Concentration; EC50: 50% Effective Concentration; TC: Tolerated Concentration
IL-1β = test: Monocyte release of IL-1β; assay type: cell-based, human; design: key to EFFECT: NE: No effect; NT: Not tested; INHIB: Inhibition; STIM: Stimulation; IC20: 20% Inhibitory Concentration; EC50: 50% Effective Concentration; TC: Tolerated Concentration; conditions: IL1β
superoxide anion = test: Monocyte superoxide anion (O2) release; assay type: cell-based, human; design: key to EFFECT: NE: No effect; NT: Not tested; INHIB: Inhibition; STIM: Stimulation; IC20: 20% Inhibitory Concentration; EC50: 50% Effective Concentration; TC: Tolerated Concentration
Method: Monocyte Superoxide Anion (O2) Release:
Monocytes are prepared as described above and resuspended to 5×10^6 /ml in HBSS containing 10 Mm HEPES, 2 g/l glucose, 0.1% BSA, Ph 7.2. To each well of a 96-well flat bottom, tissue culture plate is added 100 μl of cell suspension and 100 μl of buffer or test materials. Samples are run in quadruplicate. The plate is incubated for 60 min. at 37° C. followed by the addition of 50 μl of buffer containing cytochrome C (5 mg/ml; type VI, horse heart, Sigma) and bovine liver catalase (1500 U/ml; Sigma) in the presence of zymosan A ([…]; 750 μg/ml; Sigma). The plate is incubated an additional 120 minutes at 37° C. during which the absorbance at 550 nm is monitored using a microplate reader incorporating dedicated software for kinetic analysis (Molecular Devices; Menlo Park, Calif.).

[2] = system: human peripheral blood mononuclear cells (PBMC); test: PBMC proliferation to mitogens (PHA); assay type: cell-based; design: key: NE: No effect; NT: Not tested; INHIB: Inhibition; STIM: Stimulation; IC20: 20% Inhibitory Concentration; EC50: 50% Effective Concentration; TC: Tolerated Concentration
Method: (§1) Human Peripheral Blood Mononuclear Cell (PBMC) Isolation:
(§2) Venous blood is obtained from healthy volunteers and mixed with an equal volume of sterile isotonic saline/10 mM HEPES and placed into 50 ml conical polypropylene tubes in 30 ml aliquots. Each aliquot of diluted blood is underlaid with 20-25 ml of sterile Lymphocyte Separation Medium (LSM; Organon-Technika, Durham, N.C.). The tubes are centrifuged at 400 g for 40 minutes at room temperature. The mononuclear cells at the interface are removed and washed twice in sterile isotonic saline/10 mM HEPES followed by a wash in Hank's Balanced Salt Solution (HBSS) or RPMI without serum, depending on their intended use. Cell concentrations for each donor are determined by counting in a haematology and analyser (Serono-Baker).
PBMC Proliferation to Mitogens (PHA):
PBMC are adjusted to 4×10^6 /ml in complete medium. To each well of a 96 well flat bottom tissue culture plate (Falcon 3072) is added 50 μl of cell suspension. Test materials (diluted in complete medium to 2× the desired final concentration) are added in 100 μl volumes to each well. […] The contents of the wells are harvested onto glass fibre filters using a multiple automated sample harvester (Tomtec), and the incorporated […] determined by liquid scintillation spectrophotometry and represented an cpm (counts per minute) incorporated per well.

[3] = Endotoxin testing (kinetic chromogenic procedure); design: key: NE: No effect; NT: Not tested; INHIB: Inhibition; STIM: Stimulation; IC20: 20% Inhibitory Concentration; EC50: 50% Effective Concentration; TC: Tolerated Concentration
Method: All batches of media and reagents are tested to ensure they are free of endotoxins before they are used. This laboratory uses a kinetic chromogenic procedure (Kinetic QCL; Whittaker Bioproducts) for the determination of endotoxin, performed using the Thermomax Plate reader from Molecular Devices. The plate reader incorporates dedicated software for the computer analysis of all data. Samples are tested following the manufacturer's instructions, at 3 different concentrations, in triplicate. Reference Standard Endotoxin (United States Pharmacopeia) obtained at a concentration of 10,000 endotoxin units/ml, is used to generate a standard curve to determine the actual concentration of endotoxin in the samples (sensitivity =/>0.005 endotoxin units/ml).

PAF = test: Monocyte release of PAF; assay type: cell-based, human; design: key: NE: No effect; NT: Not tested; INHIB: Inhibition; STIM: Stimulation; IC20: 20% Inhibitory Concentration; EC50: 50% Effective Concentration; TC: Tolerated Concentration; conditions: zymosan A stimulated
Method: (§3) Monocyte Release of PGE2, LTB4, and PAF:
(§4) Monocytes isolated as described above, were washed and resuspended in RPM1 containing 5 mg/ml HSA at 2×10^6 cells/ml and added to wells of a 48-well plates. The cells were allowed to adhere for 2 hours then washed in HBSS-BSA-HEPES buffer. Test materials were added at four concentrations (175 μl) for 60 minutes; then the monocytes were stimulated by addition of […] zymosan A (175 μl of 2× desired final concentration added). Supernatant medium was collected from the wells after 90 minutes incubation and stored at -20° C. until assayed. Supernatants were assayed for PGE2, LTB4 or PAF using specific scintillation proximity assays (SPA).

[4] = system: human peripheral blood mononuclear cells (PBMC); test: Two-way mixed lymphocyte reaction (MLR); assay type: cell-based; design: key: NE: No effect; NT: Not tested; INHIB: Inhibition; STIM: Stimulation; IC20: 20% Inhibitory Concentration; EC50: 50% Effective Concentration; TC: Tolerated Concentration
Method: as §1, §2
Two-Way Mixed Lymphocyte Reaction (MLR):
PBMC are prepared as described for the mitogen assays, but resuspended to 2×10^6 cells/ml in complete medium. Fifty μl of cell suspension from two different individuals is then added to each well of a 96-well flat bottom tissue culture plate. An additional 100 μl of complete medium, dexamethasone or test compounds are then added to each well, the plates are incubated for 6 days at 37° C., and then pulsed with ^3 H-thymidine and harvested as previously described.

PGE2 = test: Monocyte release of PGE2; assay type: cell-based, human; design: key: NE: No effect; NT: Not tested; INHIB: Inhibition; STIM: Stimulation; IC20: 20% Inhibitory Concentration; EC50: 50% Effective Concentration; TC: Tolerated Concentration; conditions: zymosan A stimulated
Method: as §3, §4

IL-6 = test: Monocyte release of IL-6; assay type: cell-based, human; design: key to EFFECT: NE: No effect; NT: Not tested; INHIB: Inhibition; STIM: Stimulation; IC20: 20% Inhibitory Concentration; EC50: 50% Effective Concentration; TC: Tolerated Concentration; conditions: IL6
LTB4 = test: Monocyte release of LTB4; assay type: cell-based, human; design: key: NE: No effect; NT: Not tested; INHIB: Inhibition; STIM: Stimulation; IC20: 20% Inhibitory Concentration; EC50: 50% Effective Concentration; TC: Tolerated Concentration; conditions: zymosan A stimulated
Method: as §3, §4

GM-CSF = test: Monocyte release of GM-CSF; assay type: cell-based, human; design: key to EFFECT: NE: No effect; NT: Not tested; INHIB: Inhibition; STIM: Stimulation; IC20: 20% Inhibitory Concentration; EC50: 50% Effective Concentration; TC: Tolerated Concentration
monocytes = test: Inhibition of monocyte chemotaxis; assay type: cell-based, human; design: key to EFFECT: NE: No effect; NT: Not tested; INHIB: Inhibition; STIM: Stimulation; IC20: 20% Inhibitory Concentration; EC50: 50% Effective Concentration; TC: Tolerated Concentration; conditions: chemoattractant FMLP
Method: Inhibition of Monocyte Chemotaxis:
Monocytes are prepared as previously described, and resuspended at 5×10^6 cells/ml in HBSS, 0.1% BSA (HBSS-BSA). Fluorophore labeling of the cells is carried out by adding calcein-AM to the above cells at a final concentration of 2 μM. Following a 30 minute incubation at 37° C. in humidified 5% CO2, the labeled monocytes are washed twice and incubated in a range of dilutions of the test materials for 60 minutes at 37° C. in humidified 5% CO2. The pre-treated, calcein-AM loaded cells are then added in triplicate to the wells of the top compartment of a NeuroProbe (Cabin, John, M.D.) 96-well chemotaxis chamber (2×10^5 cells/well) and permitted to migrate through a 10 μm thick bonded polycarbonate membrane (5 μm porosity; NeuroProbe Inc; Cabin, John, M.D.) towards the wells of the lower compartment containing the chemoattractant (FMLP) at 5×10^-9 M. After a 90 minute incubation at 37° C. in a humidified chamber, the wells of the upper chambers are aspirated, the monocyte-associated membrane removed, non-migrating cells wiped off and the filters permitted to air dry to 15 minutes. The number of cells migrating through the membranes are quantified by measuring the fluorescent intensity of the migrating cells in a fluorescent microplate reader (CytoFluor 2300, Millipore Corp., Bedford, Mass.)

latent HIV-1 = conditions: monocytoid (U1) cell line; cited from earlier work
HIV-1 = conditions: advanced HIV-1 infection and AIDS; cited from earlier work
TNF-α [5] = conditions: associated with HIV-1 inhibition; cited from earlier work

## CCCCCCCCCCCCCCCC(=O)OCC[N+](C)(C)CCOCn1cc(C)c(=O)[nH]c1=O [Example 6, N,N-Dimethyl-N-2-(hexadecanoyloxy)ethyl-N-[N^1-(5-methyl-2,4-dioxopyrimidinyl)methoxyethyl]ammonium iodide]
Tissue Factor
  EFFECT: INHIB
Tissue Factor; Homo sapiens, Monocyte
  pEC50: 5.37
IL-8; Homo sapiens, Monocyte
  pEC50: 5.54
IL-8
  EFFECT: INHIB
TNF-α [1]; Homo sapiens, Monocyte
  pEC50: 5.26
TNF-α [1]
  EFFECT: INHIB
MTS
  EFFECT: TC
MTS; mts assay, effect TC, read-out: Tolerated Concentration (EC50)
  MNTC: 100 µM
LDH
  EFFECT: TC
LDH; ldh assay, effect TC, read-out: Tolerated Concentration (EC50)
  MNTC: 100 µM
IL-1β; Homo sapiens, Monocyte
  pEC50: 5.12
IL-1β
  EFFECT: INHIB
Superoxide anion
  EFFECT: INHIB
Superoxide anion; Homo sapiens, Monocyte
  pEC50: 4.47
[2]
  EFFECT: NE
[3]
  EFFECT: NE
PAF
  EFFECT: NE
[4]
  EFFECT: NE
PGE2
  EFFECT: NE
IL-6; Homo sapiens, Monocyte
  pEC50: 5.24
IL-6
  EFFECT: INHIB
LTB4
  EFFECT: NE
GM-CSF
  EFFECT: INHIB
GM-CSF; Homo sapiens, Monocyte
  pEC50: 4.90
monocytes; Homo sapiens, Monocyte
  pEC50: 4.33
monocytes
  EFFECT: INHIB

## O=C1CCC(N2C(=O)c3ccccc3C2=O)C(=O)N1 (centres unmarked) [Thalidomide]
Latent HIV-1
  activation of latent HIV-1: suppress the activation of latent HIV-1
HIV-1
  inhibition of activation of virus in PBMC, patients: 16 out of 17
TNF-α [5]
  agonist-induced TNF-α protein and mRNA production: reduction
